Where two headings read alike, the source gives them in different places.
Assays:
[1] = system: human peripheral blood mononuclear cells TNF-α; assay: Repression of TNF-α in human peripheral blood mononuclear cells (LPS, ELISA); format: cell-based; conditions: PBMC, 3-fold diluted; for IC50: read-out: hPBMC IC50; for Emax: maximum effect value
Experimental: Experimental purpose: To express the anti-inflammatory activity of the test compound at the cellular level according to the level of TNF-α in human peripheral blood mononuclear cells (hPBMC).
• [0488] 1) The frozen cells were quickly thawed by continuous stirring in a 37° C. water bath. • [0489] 2) 25 mL of fresh pre-heated thawed culture medium was added to a 50 mL centrifuge tube. Then the cells were added gently, drop by drop. • [0490] 3) Cells were centrifuged at 2000 rpm for 10 min (ascending speed: 9, descending speed: 1). • [0491] 4) The supernatant was discarded and the cell particles were resuspended in 25 mL of freshly pre-heated RPMI 1640 culture medium.
• [0493] 5) After thawing and resuscitating the suspended cells, the number of cells was counted and the total number of cells required for the experiment was calculated. • [0494] 6) The cell suspension was diluted with an appropriate volume of cell culture medium. • [0495] 7) The cell suspension was poured into a sterile disposable container. • [0496] 8) 100,000 cells/(100 µL) of cell suspension was transferred to each well of a 96-well plate. • [0497] 9) The cell plates were placed in humidified air, 5% CO2 incubator, 37° C. for 2 hours.
[…] In the second step, the serum-free culture medium was diluted 125 times, and the concentration of DMSO was 0.8%. Then 16.8 µL of the compound diluted in culture medium was transferred to a 100 µL cell plate, and the concentration of DMSO was 0.114%.
After adding the compound, the cell plates were incubated in a 37° C. 5% CO2 incubator for 1 hour.
In the first step, LPS was diluted with ultrapure water to a storage concentration of 1 mg/mL. In the second step, the storage concentration of LPS was diluted to 1 µg/mL in serum-free culture medium. In the third step, serum-free culture medium was 1666.666-fold diluted. Then 16.8 µL of LPS that has been diluted with culture medium was transferred to a 116.8 µL cell plate. At this time, the final concentration of DMSO was 0.1%. After adding LPS, the cell plate was put into a 37° C., 5% CO2 incubator and incubated for 18 hours.
• [0505] 1. The TNF-α antibody was diluted to 1× in the coating solution, and then 100 µL per well was added to a 96-well high-binding performance plate, and the plate was sealed with a membrane and placed at 4° C. for 18 hours. • [0506] 2. 2000 mL of wash buffer was prepared to 1x for later use.
• [0508] 3. After the plate was coated overnight, the coating solution was poured out and washed 3 times with 300 µL of washing buffer per well. • [0509] 4. After the plate was washed, 200 µL of sealing buffer was added to each well, and the plate was sealed with membrane. Incubated for one hour in a 25° C. incubator. • [0510] 5. The cell plates incubated for 18 hours were placed in a centrifuge for centrifugation, temperature: 25° C., speed: 2000 rpm, time: 10 min, ascending speed: 9, descending speed: 1. After centrifugation, 100 µL of cell supernatant from each well was transferred to a 3599 cell plate, and then placed in a 4° C. refrigerator for later use. • [0511] 6. The cell supernatant was diluted 40 times with sealing buffer and placed in a 4° C. refrigerator for later use, and the standard was also placed in a 4° C. refrigerator for later use. • [0512] 7. After the sealing was completed, the sealing solution was poured out and washed three times with 300 µL of washing buffer per well. • [0513] 8. The diluted cell supernatant samples and standards were added to the ELISA plate, and the plate was sealed with membrane. Then incubated for 2 hours in a 25° C. incubator. • [0514] 9. The liquid in the plate was poured out and washed 5 times with 300 µL of washing buffer per well. • [0515] 10. Antibodies were prepared and 100 µL was added to each well and the plate was sealed with sealing membrane. Then incubated for one hour in a 25° C. incubator. • [0516] 11. The liquid in the plate was poured out and washed 7 times with 300 µL of washing buffer per well. • [0517] 12. […]

[2] = system: hMMP-1 promoter reporter gene in Hela cells (GR transcription repression); assay: hMMP1 transcription repression activity, luciferase reporter gene screening system (hMMP1 GR transcription repression test); format: cell-based; conditions: Homo sapiens; for Emax: HeLa, maximum effect value, positive control 1000 nM dexamethasone, read-out: TR (hMMP1 transcription inhibition activity) Effect; for IC50: absolute IC50, HeLa hMMP-1/luciferase cells, 10 nM PMA, 18 h, max concentration 1000 nM, read-out: TR (hMMP1 transcription inhibition activity) IC50
From the text: Human MMP-1 promoter region (containing two AP-1 binding sites and two PEA3 sites, a total of 249bp, GenBank catalog #AF023338) was cloned into the upstream of luciferase reporter gene. The hMMP-1 promoter reporter gene was constructed and transfected into Hela cells so that luciferase production could be easily detected. A stable recombinant hMMP-⅟luciferase cell line was used for the development and validation of this experiment.
• [0377] 1) All the culture media were carefully aspirated, and the cell layer was rinsed gently with an appropriate amount of DPBS, and then aspirated. • [0378] 2) An appropriate amount of 0.05% Typsine EDTA was added and incubated in a CO2 incubator for 3-5 minutes to digest the cells. • [0379] 3) The cells were resuspended with an appropriate amount of cell culture medium. • [0380] 4) The required amount of cells were calculated. The cell concentration was 5x10^3 cells/well. • [0381] 5) The cell suspension was diluted with appropriate cell culture medium. • [0382] 6) The cell suspension was dispensed into a disposable sterile loading slot. • [0383] 7) Inoculated 30µL per well into a 384-well plate. • [0384] 8) The cell plate was placed in a 37° C. 5% CO2 incubator for 18-24 hours.
The final DMSO concentration was 0.1%. PMA needs to be protected from light during use.
hMMP1 GR transcription repression activity test • [0395] 1) Inoculated cells: Fresh cells were inoculated into 384 white experimental plates at 5x10^3 cells/30µL/well, and incubated in a 5% CO2 incubator at 37° C. for 24 hours. • [0396] 2) Compound preparation: The compound plate was prepared before the experiment, and the reference compound (dexamethasone) and the tested compound of 10x concentration were prepared. Finally, the experimental plate of 10× concentration compound was obtained. • [0397] 3) Added compound: 3.3 µL of 10x compound was transferred with Bravo and added to cell plate. Incubated for 18 hours in a 5% CO2 incubator at 37° C. • [0398] 4) 30 µL of Bright-Glo fluorescent detection reagent was transferred to the cell plate. • [0399] 5) Centrifugal incubation for 2 minutes. • [0400] 6) The fluorescence value was measured with the Envision plate reader.
Positive Control: 10 nM PMA + 1000 nM dexamethasone (0.1% DMSO)
Negative control: 10 nM PMA (0.1% DMSO)
Test compound: Maximum concentration of 1000 nM, 4-fold dilution, 10 wells in total, repeated.
Dexamethasone: Maximum concentration of 1000 nM, 4-fold dilution, 10 wells in total, repeated.
The graphing software GraphPad Prism5 was used to create the concentration curves of the test compounds and calculate the IC50 values.

[3] = absolute IC50, test Top concentration 10000 nM, 8 concentration (unmarked)
[4] = test Top concentration 10000 nM, 8 concentration (unmarked)
[5] = absolute IC50, test Top concentration 1000 nM, 8 concentration (*)
[6] = test Top concentration 1000 nM, 8 concentration (*)
[7] = absolute IC50, test Top concentration 100 nM, 8 concentration (***)
[8] = test Top concentration 100 nM, 8 concentration (***)

| SMILES | IC50 [1, 3] [nM] | Emax [1, 4] [%] | Emax [2] [%] | IC50 [2] [nM] | IC50 ([1]; absolute IC50, test Top concentration 500 nM, 8 concentration (**)) [nM] | Emax ([1]; test Top concentration 500 nM, 8 concentration (**)) [%] | IC50 [1, 5] [nM] | Emax [1, 6] [%] | IC50 [1, 7] [nM] | Emax [1, 8] [%] |
| --- | --- | --- | --- | --- | --- | --- | --- | --- | --- | --- |
| CC(C)[C@H](NC(=O)C(C)(F)F)[C@H](Oc1ccc2c(cnn2-c2ccc3nncn3c2)c1)c1cc(F)cc(F)c1 [WX017] | 7.63 | 83.1 | 86 | 0.9 |  |  |  |  |  |  |
| C[C@H](NC(=O)C(C)(F)F)[C@H](Oc1ccc2c(cnn2-c2cn(C)nn2)c1)c1cc(F)cc(F)c1 [WX051] |  |  | 95.4 | 3.45 | 10.4 | 74.9 |  |  |  |  |
| C[C@H](NC(=O)C(C)(F)F)[C@H](Oc1ccc2c(cnn2-c2ccc3c(c2)CCCO3)c1)c1cc(F)cc(F)c1 [WX002] | 15.1 | 84.6 | 100 | 0.318 |  |  |  |  |  |  |
| CC(C)[C@H](NC(=O)C(C)(F)F)[C@H](Oc1ccc2c(cnn2-c2ccc3nncn3c2)c1)c1ccccc1 [WX018] |  |  | 83.7 | 6.1 |  |  | 18.6 | 69.3 |  |  |
| CC(C)[C@H](NC(=O)C(C)(F)F)[C@H](Oc1ccc2c(cnn2-c2ccc3nccn3c2)c1)c1ccccc1 [WX004] |  |  | 78.8 | 3.58 |  |  | 15.9 | 78.5 |  |  |
| C[C@H](NC(=O)C(C)(F)F)[C@H](Oc1ccc2c(cnn2-c2ccc3ncnn3c2)c1)c1cc(F)cc(F)c1 [WX034] |  |  | 97.1 | 3.22 |  |  | 12.6 | 79.3 |  |  |
| C[C@H](NC(=O)C(C)(F)F)[C@H](Oc1ccc2c(cnn2-c2ccc3nncn3c2)c1)c1cc(F)cc(F)c1 [WX019] |  |  | 94.8 | 0.171 |  |  |  |  | 0.98 | 90 |
| C[C@H](NC(=O)C(C)(F)F)[C@H](Oc1ccc2c(cnn2-c2ccc3nccn3c2)c1)c1cc(F)cc(F)c1 [WX003] |  |  | 95.1 | 0.08 |  |  |  |  | 0.97 | 84.3 |
| C[C@H](NC(=O)C(C)(F)F)[C@H](Oc1ccc2c(cnn2-c2cnn(C)c2)c1)c1ccccc1 [WX043] |  |  | 93.3 | 1.21 |  |  | 4.9 | 88.8 |  |  |
| C[C@H](NC(=O)C(C)(F)F)[C@H](Oc1ccc2c(cnn2-c2ccc3nnnn3c2)c1)c1cc(F)cc(F)c1 [WX035] |  |  | 94.6 | 2.15 |  |  | 11.6 | 100 |  |  |

Source: patent US20230167068A1, “BENZOPYRAZOLE COMPOUND” (MEDSHINE DISCOVERY INC., priority 2019, published 2023)
